In patent US20260256792A1, “TREATMENT OF CHRONIC SPONTANEOUS URTICARIA BY ADMINISTERING (R)-2-[3-[4-AMINO-3-(2-FLUORO-4-PHENOXY-PHENYL)PYRAZOLO[3,4-D]PYRIMIDIN-1-YL]PIPERIDINE-1-CARBONYL]-4-METHYL-4-[4-(OXETAN-3-YL)PIPERAZIN-1-YL]PENT-2-ENENITRILE” (priority 2023, published 2026):

System: moderate-to-severe chronic spontaneous urticaria (CSU)
Experiment: Phase 2 CSU study: urticaria activity score over 7 days (UAS7)
Assay type: in vivo, human
Parameters: key to UAS7 Median / UAS7 Change from baseline Median / UAS7 change from baseline, Q1 / UAS7 change from baseline, Q3 / UAS7 change from baseline, Max / UAS7 Change from baseline LS Mean (SE): UAS7 points; daily UAS score ranges 0–6 points/day, over 7 days
Excerpt: The study comprises a 12 week, randomized, double-blind, placebo-controlled, multi-center, dose-ranging efficacy and safety phase, followed by a 40 week open label extension (OLE) phase (see FIG. 1). The study consists of three phases and an optional OLE phase. […] Clinically, CSU is characterized by the spontaneous and recurrent appearance of pruritic hives. The proposed primary endpoints were the UAS7 at Week 12 in EU and EU reference countries and the ISS7 in the US. Regardless of where a participant was from, all assessments were the same. The UAS7 score is a composite score containing both the HSS7 and the ISS7. This allowed a global assessment of the two key components of urticaria: hives and itch. […] The UAS is a validated PRO measure. […] The daily UAS scores range from 0 to 6 point/day. […] Patients were to complete the UAS using the e-diary. […] The following secondary endpoints were to be analyzed using the same approach as for the primary endpoint: • Change from baseline in UAS7 at Week 4 • Change from baseline in UAS7 at Week 12 (for US and US reference countries) • Change from baseline in ISS7 at Week 12 (except US and US reference countries) • Change from baseline in HSS7 at Week 12 The following responder secondary endpoints were to be analyzed using the Cochran-Mantel-Haenszel test adjusted by region: • Proportion of participants with UAS7<6 at Week 12 • Proportion of participants with UAS7=0 at Week 12 Participants who received selected prohibited medications and/or rescue medications were to be considered as non-responders for time points after the medication usage. For other participants, all available data including those collected during the off-treatment period were to be used to determine the responder/non-responder status. Missing data were to be considered as non-responders.

[1] = Week 11, 400 mg TID, Prior Omalizumab Use
[2] = Week 11, 400 mg TID, omalizumab-naive participants
[3] = Week 12, 400 mg BID, ITT population
[4] = Week 12, 400 mg BID, Omalizumab-Naïve
[5] = Week 12, 400 mg BID, Prior Omalizumab Use
[6] = Week 12, 400 mg BID, omalizumab-naive participants
[7] = Week 12, 400 mg QPM, ITT population
[8] = Week 12, 400 mg QPM, Omalizumab-Naïve
[9] = Week 12, 400 mg QPM, Prior Omalizumab Use
[10] = Week 12, 400 mg QPM, omalizumab-naive participants
[11] = Week 12, 400 mg TID, ITT population
[12] = Week 12, 400 mg TID, Omalizumab-Naïve
[13] = Week 12, 400 mg TID, Prior Omalizumab Use
[14] = Week 12, 400 mg TID, omalizumab-naive participants

## CC(C)(C=C(C#N)C(=O)N1CCC[C@@H](n2nc(-c3ccc(Oc4ccccc4)cc3F)c3c(N)ncnc32)C1)N1CCN(C2COC2)CC1 [rilzabrutinib, (R)-2-[3-[4-amino-3-(2-fluoro-4-phenoxy-phenyl)pyrazolo[3,4-d]pyrimidin-1-yl]piperidine-1-carbonyl]-4-methyl-4-[4-(oxetan-3-yl)piperazin-1-yl]pent-2-enenitrile]
[1]
  UAS7 Change from baseline Mean (SD): −25.94 (15.41)
  UAS7 Change from baseline Median: −26.33
  UAS7 Mean (SD): 7.08 (11.77)
  UAS7 Median: 1.75
  UAS7 Percent change from baseline Mean (SD): −76.09 (31.89) %
  UAS7 Percent change from baseline Median: −92.11%
[2]
  Non-responder, UAS7 reduction from baseline of 10 points or more: 12 (34.3) n (%)
  OR for rilzabrutinib vs. placebo, UAS7 reduction of 10 points or more: 1.839
  RRD (%) for rilzabrutinib vs. placebo, UAS7 reduction of 10 points or more: 13.6 %
  Responder, UAS7 reduction from baseline of 10 points or more: 23 (65.7) n (%)
[3]
  Non-responder, UAS7 reduction from baseline of 10 points or more: 23 (56.1) n (%)
  OR for rilzabrutinib vs. placebo, UAS7 reduction of 10 points or more: 1.041
  RRD (%) for rilzabrutinib vs. placebo, UAS7 reduction of 10 points or more: 1.0 %
  Responder, UAS7 reduction from baseline of 10 points or more: 18 (43.9) n (%)
[4]
  UAS7 Change from baseline Mean (SD): −14.49 (12.08)
  UAS7 Change from baseline Median: −12.80
  UAS7 Mean (SD): 15.61 (13.91)
  UAS7 Median: 14.00
  UAS7 Percent change from baseline Mean (SD): −50.20 (37.89) %
  UAS7 Percent change from baseline Median: −47.76%
[5]
  UAS7 Change from baseline Mean (SD): −26.00 (18.38)
  UAS7 Change from baseline Median: −31.00
  UAS7 Mean (SD): 8.75 (17.50)
  UAS7 Median: 0.00
  UAS7 Percent change from baseline Mean (SD): −75.00 (50.00) %
  UAS7 Percent change from baseline Median: −100.00%
[6]
  Non-responder, UAS7 reduction from baseline of 10 points or more: 20 (57.1) n (%)
  OR for rilzabrutinib vs. placebo, UAS7 reduction of 10 points or more: 1.069
  RRD (%) for rilzabrutinib vs. placebo, UAS7 reduction of 10 points or more: 1.7 %
  Responder, UAS7 reduction from baseline of 10 points or more: 15 (42.9) n (%)
[7]
  Non-responder, UAS7 reduction from baseline of 10 points or more: 24 (63.2) n (%)
  OR for rilzabrutinib vs. placebo, UAS7 reduction of 10 points or more: 0.841
  RRD (%) for rilzabrutinib vs. placebo, UAS7 reduction of 10 points or more: −4.0 %
  Responder, UAS7 reduction from baseline of 10 points or more: 14 (36.8) n (%)
[8]
  UAS7 Change from baseline Mean (SD): −10.57 (9.36)
  UAS7 Change from baseline Median: −8.70
  UAS7 Median: 22.87
  UAS7 Percent change from baseline Mean (SD): −33.23 (28.33) %
  UAS7 Percent change from baseline Median: −29.67%
[9]
  UAS7 Change from baseline Mean (SD): −25.00 (NC)
  UAS7 Change from baseline Median: −25.00
  UAS7 Mean (SD): 16.00 (NC)
  UAS7 Median: 16.00
  UAS7 Percent change from baseline Mean (SD): −60.98 (NC) %
  UAS7 Percent change from baseline Median: −60.98%
[10]
  Non-responder, UAS7 reduction from baseline of 10 points or more: 24 (64.9) n (%)
  OR for rilzabrutinib vs. placebo, UAS7 reduction of 10 points or more: 0.780
  RRD (%) for rilzabrutinib vs. placebo, UAS7 reduction of 10 points or more: −5.8 %
  Responder, UAS7 reduction from baseline of 10 points or more: 13 (35.1) n (%)
[11]
  Non-responder, UAS7 reduction from baseline of 10 points or more: 18 (43.9) n (%)
  OR for rilzabrutinib vs. placebo, UAS7 reduction of 10 points or more: 1.638
  RRD (%) for rilzabrutinib vs. placebo, UAS7 reduction of 10 points or more: 11.7 %
  Responder, UAS7 reduction from baseline of 10 points or more: 23 (56.1) n (%)
[12]
  UAS7 Change from baseline Mean (SD): −19.04 (11.40)
  UAS7 Change from baseline Median: −18.92
  UAS7 Mean (SD): 11.00 (9.90)
  UAS7 Percent change from baseline Mean (SD): −62.32 (31.89) %
  UAS7 Percent change from baseline Median: −60.00%
[13]
  UAS7 Change from baseline Mean (SD): −27.40 (16.76)
  UAS7 Change from baseline Median: −34.00
  UAS7 Mean (SD): 7.80 (13.01)
  UAS7 Median: 0.00
  UAS7 Percent change from baseline Mean (SD): −74.46 (35.38) %
  UAS7 Percent change from baseline Median: −100.00%
[14]
  Non-responder, UAS7 reduction from baseline of 10 points or more: 15 (42.9) n (%)
  OR for rilzabrutinib vs. placebo, UAS7 reduction of 10 points or more: 1.805
  Responder, UAS7 reduction from baseline of 10 points or more: 20 (57.1) n (%)
